# No end group written: not given here.
# Columns and labels:
# chymotrypsin [1] = target: T1, chymotrypsin (Bos taurus, UniProt P00766); assay: Guanylin degradation assay (chymotrypsin digestion) read out in the T84 cGMP assay; assay type: biochemical, bovine; conditions: T84 cells, FIG. 1
# T1 construct: purchased Sigma C6423
# Method: Since guanylin is susceptible to digestion by chymotrypsin, chymotrypsin activity can be assayed based on guanylin cleavage. […] From this stock, six (6) 500 μl aliquots were prepared in 2 ml Eppendorf tubes and labeled “Control”, “T0”, “T15”, “T30”, “T60”, and “T180”, with “T_” representing timepoints, in minutes. 5 μl of a 10 mM chymostatin (Sigma, C7268) stock (5 mg of chymostatin resuspended in 824 μl of DMSO) was added to the “Control” samples and all samples were incubated for 5 minutes at 30° C. Chymostatin inhibits chymotrypsin activity and this sample served as a negative control. Next, 20 μl of a chymotrypsin (Sigma, C6423) enzyme solution (0.01 mg/ml bovine chymotrypsin enzyme in 1 mM HCl, 2 mM Calcium Chloride) were added to the samples and mixed by inversion. Samples are incubated at 30° C. […] Determination of sensitivity to digestion by chymotrypsin was determined by LCMS analysis and by in vitro activity in the T84 cGMP assays described below.
# The ability of guanylin to activate the intestinal GC-C receptor was assessed in an assay employing the T84 human colon carcinoma cell line (American Type Culture Collection (Bethesda, Md.). For the assays cells were grown to confluency in 24-well culture plates with a 1:1 mixture of Ham's F12 medium and Dulbecco's modified Eagle's medium (DMEM), supplemented with 5% fetal calf serum and were used at between passages 54 and 60. […]
# [2] = tested on: guanylin-induced intestinal fluid secretion; conditions: suckling mouse model; chymostatin given with guanylin; cited from earlier work
# chymotrypsin [3] = conditions: cited from earlier work
# human HT-29/B6 cells = conditions: cited from earlier work
molecule,measurement,setting,value
CC(C)C[C@H](NC(=O)[C@@H](NC(=O)N[C@@H](Cc1ccccc1)C(=O)O)C1CCNC(=N)N1)C(=O)N[C@H](C=O)Cc1ccccc1 (stereo partly shown) [chymostatin],guanylin stimulated cGMP activity with chymotrypsin inhibitor present,chymotrypsin [1]; chymostatin added before chymotrypsin digestion of guanylin,retained
same,guanylin-induced intestinal fluid secretion,[2],required in order to observe guanylin-induced intestinal fluid secretion
same,chymotrypsin-mediated inactivation of guanylin,chymotrypsin [3],can be prevented
"Cc1c(O)cccc1C(=O)N[C@@H](CSc1ccccc1)[C@H](O)CN1C[C@H]2CCCC[C@H]2C[C@H]1C(=O)NC(C)(C)C [nelfinavir, Nelfinavir]",effect on the epithelial barrier,human HT-29/B6 cells,impair the epithelial barrier
"CC(C)(C)NC(=O)[C@@H]1C[C@@H]2CCCC[C@@H]2CN1C[C@@H](O)[C@H](Cc1ccccc1)NC(=O)[C@H](CC(N)=O)NC(=O)c1ccc2ccccc2n1 [saquinavir, Saquinavir]",effect on the epithelial barrier,human HT-29/B6 cells,impair the epithelial barrier
"guanylin: intestinal peptide of 15 amino acids, agonist of the guanylate cyclase (GC-C) receptor; Sigma G-116 (PGTCEICAYAACTGC; ends and bridges not checked; cysteine pairing not given here; UniProt Q02747 101-115, looked up)",guanylin stimulated cGMP activity,"chymotrypsin [1]; guanylin digested with chymotrypsin at 30° C., timepoints 0-180 min, no chymostatin",decreases over time
CC(C)c1nc(CN(C)C(=O)N[C@H](C(=O)N[C@@H](Cc2ccccc2)C[C@H](O)[C@H](Cc2ccccc2)NC(=O)OCc2cncs2)C(C)C)cs1 [ritonavir],effect on the epithelial barrier,human HT-29/B6 cells,impair the epithelial barrier
